# Assay results taken from ChEMBL document CHEMBL3992552, “Mechanisms of action and structure-activity relationships of cytotoxic flavokawain derivatives” (Bioorg Med Chem, 2017).
# Active and inactive are the calls of the source. The calls are words filed in the database; no cut-off is given here.
# Legend:
# HaCaT [1] = assay: Cytotoxicity against human HaCaT cells assessed as cell survival at 50 uM after 48 hrs by Hoechst 33342 staining based assay relative to control; format: functional; conditions: read-out: Survival
# Huh-7 [2] = assay: Cytotoxicity against human HuH7 cells assessed as cell survival at 50 uM after 48 hrs by Hoechst 33342 staining based assay relative to control; format: functional; conditions: Huh-7, 48 h, read-out: Survival
# PC-3 [3] = assay: Cytotoxicity against human PC3 cells assessed as cell survival at 50 uM after 48 hrs by Hoechst 33342 staining based assay relative to control; format: functional; conditions: PC-3, 48 h, read-out: Survival
# MDA-MB-231 [4] = assay: Cytotoxicity against human MDA-MB-231 cells assessed as cell survival at 50 uM after 48 hrs by Hoechst 33342 staining based assay relative to control; format: functional; conditions: MDA-MB-231, 48 h, read-out: Survival
# [5] = Cytotoxicity against human fibroblasts assessed as cell survival at 50 uM after 48 hrs by Hoechst 33342 staining based assay relative to control; set-up: species or system Fibroblast; conditions: read-out: Survival
# NCI-H727 [6] = assay: Cytotoxicity against human NCI-H727 cells assessed as cell survival at 50 uM after 48 hrs by Hoechst 33342 staining based assay relative to control; format: functional; conditions: NCI-H727, 48 h, read-out: Survival
# Caco-2 [7] = assay: Cytotoxicity against human Caco2 cells assessed as cell survival at 50 uM after 48 hrs by Hoechst 33342 staining based assay relative to control; format: functional; conditions: Caco-2, 48 h, read-out: Survival
# HCT-116 [8] = assay: Cytotoxicity against human HCT116 cells assessed as cell survival at 50 uM after 48 hrs by Hoechst 33342 staining based assay relative to control; format: functional; conditions: HCT-116, 48 h, read-out: Survival
# [9] = Selectivity index, ratio of IC50 for human fibroblasts to IC50 for human RL cells
# MCF7 [10] = assay: Cytotoxicity against human MCF7 assessed as cell viability after 48 hrs by Hoechst 33342 staining based assay; format: functional; conditions: MCF7, 48 h
# [11] = Selectivity index, ratio of IC50 for human fibroblasts to IC50 for human Caco2 cells
# [12] = Selectivity index, ratio of IC50 for human fibroblasts to IC50 for human HuH7 cells
# [13] = Selectivity index, ratio of IC50 for human fibroblasts to IC50 for human HaCaT cells
# [14] = Selectivity index, ratio of IC50 for human fibroblasts to IC50 for human MCF7 cells
# PC-3 [15] = assay: Cytotoxicity against human PC3 cells assessed as cell viability after 48 hrs by Hoechst 33342 staining based assay; format: functional; conditions: PC-3, 48 h
# NCI-H727 [16] = assay: Cytotoxicity against human NCI-H727 cells assessed as cell viability after 48 hrs by Hoechst 33342 staining based assay; format: functional; conditions: NCI-H727, 48 h
# [17] = Selectivity index, ratio of IC50 for human fibroblasts to IC50 for human HCT116 cells
# MDA-MB-231 [18] = assay: Cytotoxicity against human MDA-MB-231 cells assessed as cell viability after 48 hrs by Hoechst 33342 staining based assay; format: functional; conditions: MDA-MB-231, 48 h
# Huh-7 [19] = assay: Cytotoxicity against human HuH7 cells assessed as cell viability after 48 hrs by Hoechst 33342 staining based assay; format: functional; conditions: Huh-7, 48 h
# [20] = Selectivity index, ratio of IC50 for human fibroblasts to IC50 for human PC3 cells
# HaCaT [21] = assay: Cytotoxicity against human HaCaT cells assessed as cell viability after 48 hrs by Hoechst 33342 staining based assay; format: functional
# HCT-116 [22] = assay: Cytotoxicity against human HCT116 cells assessed as cell viability after 48 hrs by Hoechst 33342 staining based assay; format: functional; conditions: HCT-116, 48 h
# [23] = Selectivity index, ratio of IC50 for human fibroblasts to IC50 for human MDA-MB-231 cells
# [24] = Selectivity index, ratio of IC50 for human fibroblasts to IC50 for human NCI-H727 cells
# Fibroblast = assay: Cytotoxicity against human fibroblasts assessed as cell viability after 48 hrs by Hoechst 33342 staining based assay
# Caco-2 [25] = assay: Cytotoxicity against human Caco2 cells assessed as cell viability after 48 hrs by Hoechst 33342 staining based assay; format: functional; conditions: Caco-2, 48 h
# RL = assay: Cytotoxicity against human RL assessed as cell viability after 48 hrs by Hoechst 33342 staining based assay; format: functional
# MCF7 [26] = assay: Induction of apoptosis in human MCF7 cells harboring wild-type p53 assessed as increase in early apoptosis at 2 times IC50 after 24 hrs by YoPro/propidium iodide/Hoechst staining based assay; format: functional, cell-based
# MDA-MB-231 [27] = assay: Induction of apoptosis in human MDA-MB-231 cells harboring p53 mutant assessed as increase in cleaved caspase3 at 2 times IC50 after 24 hrs by Hoechst staining based assay; format: functional, cell-based
# MCF7 [28] = assay: Induction of apoptosis in human MCF7 cells harboring wild-type p53 assessed as upregulation of p21 measured after 48 hrs by Hoechst staining based fluorescence assay; format: functional, cell-based
# MDA-MB-231 [29] = assay: Induction of apoptosis in human MDA-MB-231 cells harboring p53 mutant assessed as increase in early apoptosis at 2 times IC50 after 24 hrs by YoPro/propidium iodide/Hoechst staining based assay; format: functional, cell-based
# HCT-116 [30] = assay: Induction of apoptosis in human HCT116 cells harboring wild-type p53 assessed as upregulation of p21 measured after 48 hrs by Hoechst staining based fluorescence assay; format: functional, cell-based
# HCT-116 [31] = assay: Induction of apoptosis in human HCT116 cells harboring wild-type p53 assessed as increase in early apoptosis at 2 times IC50 after 48 hrs by YoPro/propidium iodide/Hoechst staining based assay; format: functional, cell-based
# HCT-116 [32] = assay: Induction of apoptosis in human HCT116 cells harboring wild-type p53 assessed as increase in cleaved caspase3 at 2 times IC50 after 48 hrs by Hoechst staining based assay; format: functional, cell-based
# HCT-116 [33] = assay: Induction of apoptosis in human HCT116 cells harboring wild-type p53 assessed as upregulation of cyclinB1 measured after 48 hrs by Hoechst staining based assay; format: functional, cell-based
# HCT-116 [34] = assay: Induction of apoptosis in human HCT116 cells harboring wild-type p53 assessed as increase in late apoptosis at 2 times IC50 after 48 hrs by YoPro/propidium iodide/Hoechst staining based assay; format: functional, cell-based
# MDA-MB-231 [35] = assay: Induction of apoptosis in human MDA-MB-231 cells harboring p53 mutant assessed as increase in late apoptosis at 2 times IC50 after 24 hrs by YoPro/propidium iodide/Hoechst staining based assay; format: functional, cell-based
# PC-3 [36] = assay: Induction of apoptosis in human PC3 cells harboring p53 mutant assessed as increase in late apoptosis at 2 times IC50 after 48 hrs by YoPro/propidium iodide/Hoechst staining based assay; format: functional, cell-based
# PC-3 [37] = assay: Induction of apoptosis in human PC3 cells harboring p53 mutant assessed as upregulation of cyclinB1 after 48 hrs by Hoechst staining based assay; format: functional, cell-based
# MCF7 [38] = assay: Induction of apoptosis in human MCF7 cells harboring wild-type p53 assessed as upregulation of cyclinB1 measured after 18 hrs by Hoechst staining based assay; format: functional, cell-based
# MCF7 [39] = assay: Induction of apoptosis in human MCF7 cells harboring wild-type p53 assessed as increase in late apoptosis at 2 times IC50 after 24 hrs by YoPro/propidium iodide/Hoechst staining based assay; format: functional, cell-based
# PC-3 [40] = assay: Induction of apoptosis in human PC3 cells harboring p53 mutant assessed as increase in early apoptosis at 2 times IC50 after 48 hrs by YoPro/propidium iodide/Hoechst staining based assay; format: functional, cell-based
# PC-3 [41] = assay: Induction of apoptosis in human PC3 cells harboring p53 mutant assessed as increase in cleaved caspase3 at 2 times IC50 after 48 hrs by Hoechst staining based assay; format: functional, cell-based
# MDA-MB-231 [42] = assay: Induction of apoptosis in human MDA-MB-231 cells harboring p53 mutant assessed as upregulation of cyclinB1 after 18 hrs by Hoechst staining based assay; format: functional, cell-based
Structure (SMILES),viability at 50 µM (HaCaT [1]),viability at 50 µM (Huh-7 [2]),viability at 50 µM (PC-3 [3]),viability at 50 µM (MDA-MB-231 [4]),"viability at 48 h, 50 µM [5]",viability at 50 µM (NCI-H727 [6]),viability at 50 µM (Caco-2 [7]),viability at 50 µM (HCT-116 [8]),also measured
COc1cc(OC)c(C(=O)/C=C/c2ccc(C(=O)O)cc2)c(OC)c1,59%,38%,39%,68%,57%,23%,25%,7%,
COc1cc(OC)c(C(=O)/C=C/c2ccccc2OC)c(OC)c1,23%,6%,32%,11%,77%,1%,5%,0%,Ratio IC50 [9]: 0.9; IC50 (MCF7 [10]): 8.9 µM; Ratio IC50 [11]: 1.8; Ratio IC50 [12]: 0.8; Ratio IC50 [13]: 0.9; Ratio IC50 [14]: 0.9; IC50 (PC-3 [15]): 8.1 µM; IC50 (NCI-H727 [16]): 4 µM; Ratio IC50 [17]: 2; IC50 (MDA-MB-231 [18]): 13 µM; IC50 (Huh-7 [19]): 9.8 µM; Ratio IC50 [20]: 1; IC50 (HaCaT [21]): 8.7 µM; IC50 (HCT-116 [22]): 4.2 µM; Ratio IC50 [23]: 0.6; Ratio IC50 [24]: 2.1; IC50 (Fibroblast): 8.2 µM; IC50 (Caco-2 [25]): 4.5 µM; IC50 (RL): 9 µM
COc1cc(O)c(C(=O)/C=C/c2ccc(C(=O)O)cc2)c(OC)c1,> 80%,> 80%,> 80%,> 80%,> 80%,> 80%,> 80%,> 80%,
COc1cc(O)c(C(=O)/C=C/c2ccc(Br)cc2)c(OC)c1,66%,> 80%,58%,> 80%,> 80%,72%,> 80%,> 80%,Activity (MCF7 [26]): inactive; Activity (MDA-MB-231 [27]): inactive; Activity (MCF7 [28]): inactive; Activity (MDA-MB-231 [29]): inactive; Activity (HCT-116 [30]): inactive; Activity (HCT-116 [31]): inactive; Activity (HCT-116 [32]): inactive; Activity (HCT-116 [33]): inactive; Activity (HCT-116 [34]): inactive; Activity (MDA-MB-231 [35]): inactive; Activity (PC-3 [36]): inactive; Activity (PC-3 [37]): inactive; Activity (MCF7 [38]): inactive; Activity (MCF7 [39]): inactive; Activity (PC-3 [40]): inactive; Activity (PC-3 [41]): inactive; Activity (MDA-MB-231 [42]): inactive
COc1ccc(/C=C/C(=O)c2c(O)cc(OC)cc2OC)cc1 [FLAVOKAWAIN A],35%,50%,43%,58%,67%,40%,32%,20%,
COc1cc(O)c(C(=O)/C=C/c2ccc(Cl)cc2)c(OC)c1,> 80%,> 80%,> 80%,> 80%,> 80%,> 80%,> 80%,> 80%,
COc1cc(OC)c(C(=O)/C=C/c2ccc(O)cc2)c(OC)c1,16%,45%,33%,32%,65%,42%,24%,17%,
COc1cc(O)c(C(=O)/C=C/c2ccc(N(C)C)cc2)c(OC)c1,> 80%,> 80%,> 80%,> 80%,> 80%,> 80%,> 80%,> 80%,
